Measured values published in patent publication US20250127774A1, “COMPOUNDS FOR LABELLING NUCLEIC ACID AND USES THEREOF” (THE ROYAL INSTITUTION FOR THE ADVANCEMENT OF …, priority 2022, published 2025).
Read-outs that look alike come from different tables or passages of the source.

Columns and labels:
MV4-11 cells [1] = assay: Resazurin single toxicity assay; format: cell-based; settings: Homo sapiens, compound alone
Protocol: (§1) Resazurin assays were carried out to test the effectiveness of VdU, VdA and PINK alone in MV4-11 and Jurkat. The resazurin reduction assay is a colorimetric assay which allows to determine a cell's viability based on its metabolic activities.^26 When the cells are alive, the resazurin gets reduced by NADH into its resorufin form by cellular respiration, which is pink and highly fluorescent.^26 When the cells are dead or their metabolisms are impaired, the resazurin remains in its oxidized form, which is blue and has low fluorescence.^26 The cells can then be imaged using a spectrometer to determine how viable they are after each treatment.
(§2) Resazurin Single toxicity assay. MV4-11 and Jurkat cells were seeded in 96-well plates at a density of 20 000 cells/well, in triplicates. The cells were treated with each nucleoside (VdU/VdA) alone diluted in fresh media in 1:4 serial dilutions (˜0.01% DMSO) at concentrations of 1000-0 μM. The cells were treated with PINK alone diluted in fresh media in 1:2 serial dilutions (˜1% DMSO) at concentration of 100-0 μM. The cells were then incubated for 24 h and 72h. 10 μL of 870 μM resazurin was added per well, and incubated for 2-5 hours. After incubation, the fluorescence intensity at 590 nm (excitation=560 nm) was measured using a SpectraMax M5 plate reader.

Jurkat cells [2] = assay: Resazurin single toxicity assay; format: cell-based; settings: Homo sapiens, compound alone
Protocol: as §1, §2

HeLa and U2OS cells = assay: Resazurin assay, toxicity evaluation of PINK; format: cell-based; settings: low micromolar concentrations of PINK (0-12.5 μM), 24 and 72 h
Protocol: Cellular respiratory activity was evaluated by measuring the fluorescence emission after addition of resazurin ([…]).
Resazurin Assay. HeLa or U2OS cells were seeded in 96-well plates at a density of 7,500 cells per well and incubated overnight. The supernatant was removed and 100 μL fresh media containing PINK (0-12.5 μM; 0.1% DMSO) was added. Cells were grown for 24 or 72 h, at which point 10 μL resazurin (880 μM in PBS; final concentration: 80 μM) was added. After incubation for 3 h, the fluorescence emission at 590 nm (excitation 560 nm; cut-off: 575 nm) was measured using a SpectraMax M5 plate reader (Molecular Devices, Sunnyvale, CA, USA). LC50 values were determined from two independent replicates.

MOLM-13 cells = assay: Resazurin Chou-Talalay optimized toxicity assay; format: cell-based; settings: Homo sapiens; MOLM-13, Fa 0.50 (50% cells killed); read-out: Concentration of compound alone required at Fa
Protocol: (§3) Lastly to determine how synergistic the combination of VdU with PINK is in the three leukemia cell lines, another resazurin reduction assay was conducted where VdU and PINK were maintained at a constant 5:1 ratio. The data generated from this resazurin assay were analyzed using the synergy model developed by Chou and Talalay 30, which is based on the median effect dose (IC50) and the slope of the drug response curve, as shown in equation II: […]
(§4) The model allows to quantitatively measure the synergy of drug combinations, by generating a combination index (CI).^30 A CI below 1 indicates a synergistic interaction which means that the effect of the drug combination is greater than the effect of both drugs alone combined.^30A CI equal to 1 indicates an additive interaction which means that the effect of the drug combination is equal to the effect of both drugs alone combined.^30 A CI above 1 indicates an antagonistic interaction which means that the effect of the drug combination is less than the effect of both alone combined. […] Where a DRI above 1 is a favorable dose reduction and a DRI below 1 is an unfavorable dose reduction.^30
(§5) Resazurin Chou-Talalay optimized toxicity assay. MV4-11, MOLM-13 and Jurkat cells were seeded in 96-well plates at a density of 20 000 cells/well, 25 000 cells/well and 30 000 cells/well, respectively, in triplicates. The cells were first treated with VdU diluted in fresh media in 1:4 serial dilutions (˜0.01% DMSO) at concentrations of 500-0 μM alone and in combination, and incubated overnight. 24h post nucleoside addition, the cells were treated with PINK diluted in fresh media in 1:4 serial dilutions (˜1% DMSO) at concentrations of 100-0 μM alone or in combination, and incubated for 72 h. […] The cells were treated with resazurin, incubated and measured, as described above. The data was processed and analysed in the CompuSyn program used for running Chou-Talalay synergy analyses.^33

Jurkat cells [3] = assay: Resazurin Chou-Talalay optimized toxicity assay; format: cell-based; settings: Homo sapiens, Fa 0.50 (50% cells killed), read-out: Concentration of compound alone required at Fa
Protocol: as §3, §4, §5

H1299 cells = assay: FACS cell cycle analysis; format: cell-based, human; settings: H1299, 48 h and 72 h after the initial treatment
Protocol: 5-VdU and PINK combinatory impact on the cell cycle. FACS analysis of H1299 cells treated with 5-VdU/PINK whos that the cell cycle progression is severely impacted upon combinatory treatment. […] (see FIG. 26). Percentage of H1299 cells undergoing apoptosis was indicated by staining with Apotracker™ Green, induced after treatment with 1 μM 5-VdU and 10 μM PINK for different time points. H1299 cells were seeded at a density of 20% and treated with 5-VdU and PINK in the indicated concentrations. One day after the last treatment, the medium was exchanged. The cells were then stained with the Apotracker™ Green dye and Hoechst. Images were taken 72h after the first treatment. (C) H1299 cells were treated with 1 μM 5-VdU for 24 h and subsequently with 5 μM PINK for another 24 h.

MV4-11 and Jurkat = assay: Resazurin single toxicity assay, summary over both cell lines; format: cell-based; settings: Homo sapiens, after 24 h and 72h, read-out: IC50 summarised over both cell lines
Protocol: as §1
Overall, VdU presented itself as a good candidate for the combination therapy with PINK due to its low toxicity in the two leukemia cell lines.
as §2

MV4-11 cells [4] = assay: Resazurin Chou-Talalay optimized toxicity assay; format: cell-based, human; settings: MV4-11, Fa 0.25-0.35 (25% to 35% of cells killed)
Protocol: as §3, §4
Resazurin Chou-Talalay optimized toxicity assay. […] The cells were treated with resazurin, incubated and measured, as described above. The data was processed and analysed in the CompuSyn program used for running Chou-Talalay synergy analyses.^33

[5] = MV4-11, 24 h incubation, read-out: IC50 value (24 h)
[6] = MV4-11, 72 h incubation, read-out: IC50 value (72 h)
[7] = 24 h incubation, read-out: IC50 value (24 h)
[8] = 72 h incubation, read-out: IC50 value (72 h)

Compound: Cc1nnc(-c2ccc3cc4ccc(N(C)C)cc4nc3c2)nn1 [PINK]
- IC50 (MV4-11 cells [1]; [5]): 5.7 µM
- IC50 (MV4-11 cells [1]; [6]): 6.2 µM
- IC50 (Jurkat cells [2]; [7]): 7 µM
- IC50 (Jurkat cells [2]; [8]): 4.4 µM
- toxicity to cells (cellular respiratory activity, resazurin) (HeLa and U2OS cells): not toxic to cells even at longer incubation times
- IC50 (MOLM-13 cells): 1.2 µM
- IC50 (Jurkat cells [3]): 1.1 µM
- cell cycle profile (time course) (H1299 cells): mostly unperturbed cell cycle profiles
- IC50 (MV4-11 and Jurkat): ~5 µM
- Concentration of compound alone required at Fa (MV4-11 cells [4]): 3.2 µM

Compound: C=Cc1cn([C@H]2C[C@H](O)[C@@H](CO)O2)c(=O)[nH]c1=O [VdU, 5-vinyl-2′-deoxyuridine]
- IC50 (MV4-11 cells [1]; [5]): > 1000 µM
- IC50 (MV4-11 cells [1]; [6]): > 1000 µM
- IC50 (Jurkat cells [2]; [7]): > 1000 µM
- IC50 (Jurkat cells [2]; [8]): 52 µM
- IC50 (MOLM-13 cells): 4.2 µM
- IC50 (Jurkat cells [3]): 3.7 µM
- cell cycle profile (time course) (H1299 cells): mostly unperturbed cell cycle profiles
- IC50 (MV4-11 and Jurkat): > 1000 µM
- Concentration of compound alone required at Fa (MV4-11 cells [4]): 59 µM
